Results: PubChem BioAssay AID330 (DTP/NCI, 2004)
“And” between values parts separate entries of the source, which are not always exact repeats. Equal values may be shown once. Toxic doses and inconclusive results are not listed. How the source made its calls: active means survival T/C of 150% or more; inactive means T/C below 125% in these data.

Tested on: P388 leukemia ip, CD2F1 mice, survival T/C
Test: NCI In Vivo Anticancer Drug Screen. Data for tumor model P388 Leukemia (intraperitoneal) in CD2F1 (CDF1) mice
Conditions: endpoint: median survival time, higher = longer survival
Procedure, shortened: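 Mice carrying the transplanted tumor received test compound or vehicle. Survival was recorded in each group, and the value is the treated-group measurement divided by that of the vehicle-treated control group.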

[1] = dose: 50.0 mg/kg/injection, schedule: Q01DX009 (ip), vehicle: saline with Tween-80
[2] = dose: 100.0 mg/kg/injection, schedule: Q01DX009 (ip), vehicle: saline with Tween-80
[3] = dose: 200.0 mg/kg/injection, schedule: Q01DX009 (ip), vehicle: saline with Tween-80
[4] = dose: 50.0 mg/kg/injection, schedule: Q01DX005 (ip), vehicle: saline with Tween-80
[5] = dose: 100.0 mg/kg/injection, schedule: Q01DX005 (ip), vehicle: saline with Tween-80
[6] = dose: 200.0 mg/kg/injection, schedule: Q01DX005 (ip), vehicle: saline with Tween-80
[7] = dose: 60.0 mg/kg/injection, schedule: Q01DX005 (ip), vehicle: saline with Tween-80
[8] = dose: 120.0 mg/kg/injection, schedule: Q01DX005 (ip), vehicle: saline with Tween-80
[9] = dose: 50.0 mg/kg/injection, schedule: Q01DX005 (ip), vehicle: Klucel (hydroxypropylcellulose) (HPC)
[10] = dose: 100.0 mg/kg/injection, schedule: Q01DX005 (ip), vehicle: Klucel (hydroxypropylcellulose) (HPC)
[11] = dose: 200.0 mg/kg/injection, schedule: Q01DX005 (ip), vehicle: Klucel (hydroxypropylcellulose) (HPC)

Measured: T/C

c1ccc2[nH]c(N=Nc3cccc4ccccc34)cc2c1
inactive: dose: 25.0 mg/kg/injection, schedule: Q01DX009 (ip), vehicle: other 93 % of control and 95 % of control | dose: 50.0 mg/kg/injection, schedule: Q01DX009 (ip), vehicle: other 100 % of control | [1] 99 % of control | dose: 100.0 mg/kg/injection, schedule: Q01DX009 (ip), vehicle: other 100 % of control and 94 % of control | [2] 108 % of control and 115 % of control | dose: 200.0 mg/kg/injection, schedule: Q01DX009 (ip), vehicle: other 98 % of control and 100 % of control | [3] 115 % of control | dose: 400.0 mg/kg/injection, schedule: Q01DX009 (ip), vehicle: saline with Tween-80 98 % of control

Cc1ccc(S(=O)(=O)CC(O)(C(C)C)C(C)C)cc1
inactive: [4] 103 % of control | [5] 102 % of control | [6] 102 % of control

Cc1nn(-c2ccccc2)c(SC(C)(C)C)c1C=NCCN=Cc1c(C)nn(-c2ccccc2)c1SC(C)(C)C
inactive: dose: 3.75 mg/kg/injection, schedule: Q01DX005 (ip), vehicle: Klucel (hydroxypropylcellulose) (HPC) 100 % of control | dose: 7.5 mg/kg/injection, schedule: Q01DX005 (ip), vehicle: Klucel (hydroxypropylcellulose) (HPC) 98 % of control | dose: 15.0 mg/kg/injection, schedule: Q01DX005 (ip), vehicle: Klucel (hydroxypropylcellulose) (HPC) 100 % of control

CC(C)NC(=O)OCCS(=O)c1c(Cl)c(Cl)nn1C (stereo not drawn)
inactive: [7] 117 % of control | [8] 109 % of control

COCN(C)N=Nc1ccc(C(=O)OC)cc1
inactive: dose: 60.0 mg/kg/injection, schedule: Q01DX005 (ip), vehicle: Klucel (hydroxypropylcellulose) (HPC) 107 % of control | dose: 120.0 mg/kg/injection, schedule: Q01DX005 (ip), vehicle: Klucel (hydroxypropylcellulose) (HPC) 101 % of control | dose: 240.0 mg/kg/injection, schedule: Q01DX005 (ip), vehicle: Klucel (hydroxypropylcellulose) (HPC) 87 % of control

COc1cc(-c2oc3c(OC)cc(OC)c(O)c3c(=O)c2OC)cc(OC)c1OC
inactive: dose: 100.0 mg/kg/injection, schedule: Q04DX002 (ip), vehicle: saline with Tween-80 96 % of control | dose: 200.0 mg/kg/injection, schedule: Q04DX002 (ip), vehicle: saline with Tween-80 105 % of control | dose: 400.0 mg/kg/injection, schedule: Q04DX002 (ip), vehicle: saline with Tween-80 96 % of control

ClC1=C(Cl)C(Cl)=C(Cl)C1=C/C=C/c1ccccc1
inactive: dose: 25.0 mg/kg/injection, schedule: Q01DX009 (ip), vehicle: saline with Tween-80 99 % of control | [1] 100 % of control | [2] 91 % of control

CC(C)=CCn1c2ccccc2c(=O)c2ccccc21
inactive: [4] 112 % of control | [5] 105 % of control | [6] 107 % of control

CC(C)C(=O)N[C@H]1C[C@H]2CCC1(C)C2(C)C
inactive: [9] 103 % of control and 93 % of control | [10] 107 % of control and 96 % of control | [11] 111 % of control and 95 % of control

COc1ccccc1C1N(C)CCCN1C
inactive: dose: 6.25 mg/kg/injection, schedule: Q01DX009 (ip), vehicle: saline 95 % of control | dose: 12.5 mg/kg/injection, schedule: Q01DX009 (ip), vehicle: saline 95 % of control | dose: 25.0 mg/kg/injection, schedule: Q01DX009 (ip), vehicle: saline 100 % of control

CNNS(=O)(=O)CC(O)C(Cl)(Cl)Cl (stereo not drawn)
inactive: dose: 50.0 mg/kg/injection, schedule: Q01DX009 (ip), vehicle: saline 106 % of control | dose: 100.0 mg/kg/injection, schedule: Q01DX009 (ip), vehicle: saline 101 % of control

CCC(=O)OC1(c2ccccc2)CCP(C)(=S)CC1 (stereo not drawn)
inactive: dose: 50.0 mg/kg/injection, schedule: Q01DX009 (ip), vehicle: Klucel (hydroxypropylcellulose) (HPC) 97 % of control | dose: 100.0 mg/kg/injection, schedule: Q01DX009 (ip), vehicle: Klucel (hydroxypropylcellulose) (HPC) 106 % of control | dose: 200.0 mg/kg/injection, schedule: Q01DX009 (ip), vehicle: Klucel (hydroxypropylcellulose) (HPC) 101 % of control

CC(=O)c1c(O)c(C)c(C)c2c1OC(=O)C2C (stereo not drawn)
inactive: dose: 3.12 mg/kg/injection, schedule: Q01DX009 (ip), vehicle: saline with Tween-80 109 % of control | dose: 6.25 mg/kg/injection, schedule: Q01DX009 (ip), vehicle: saline with Tween-80 116 % of control | dose: 12.5 mg/kg/injection, schedule: Q01DX009 (ip), vehicle: saline with Tween-80 108 % of control

NS(=O)(=O)c1ccc(N=Cc2cnc3ccccc3c2)cc1
inactive: dose: 2.5 mg/kg/injection, schedule: Q01DX009 (ip), vehicle: saline 100 % of control | dose: 5.0 mg/kg/injection, schedule: Q01DX009 (ip), vehicle: saline 97 % of control | dose: 10.0 mg/kg/injection, schedule: Q01DX009 (ip), vehicle: saline 100 % of control and 91 % of control | dose: 20.0 mg/kg/injection, schedule: Q01DX009 (ip), vehicle: saline 93 % of control

Clc1cccc(C(Nc2nncs2)Nc2nncs2)c1
inactive: [7] 100 % of control | [8] 100 % of control | dose: 240.0 mg/kg/injection, schedule: Q01DX005 (ip), vehicle: saline with Tween-80 93 % of control

CN1CSC(=S)NCCNC(=S)SC1
inactive: [9] 87 % of control | [10] 94 % of control | [11] 87 % of control

C[N+](C)([O-])c1ccc(C(=O)C2CCCCC2)cc1
inactive: dose: 100.0 mg/kg/injection, schedule: Q04DX002 (ip), vehicle: saline 101 % of control | dose: 200.0 mg/kg/injection, schedule: Q04DX002 (ip), vehicle: saline 99 % of control | dose: 400.0 mg/kg/injection, schedule: Q04DX002 (ip), vehicle: saline 103 % of control

O=C1C(Cl)=C(Nc2ccc(C#Cc3ccccc3)cc2)C(=O)C(Cl)=C1Nc1ccc(C#Cc2ccccc2)cc1
inactive: [1] 91 % of control | [2] 91 % of control | [3] 87 % of control

C=C1C(=O)OC2C/C(C=O)=C/CC/C(C)=C/C(O)C12 (stereo not drawn)
inactive: dose: 9.0 mg/kg/injection, schedule: Q01DX005 (ip), vehicle: Klucel (hydroxypropylcellulose) (HPC) 96 % of control | dose: 18.0 mg/kg/injection, schedule: Q01DX005 (ip), vehicle: Klucel (hydroxypropylcellulose) (HPC) 99 % of control | dose: 36.0 mg/kg/injection, schedule: Q01DX005 (ip), vehicle: Klucel (hydroxypropylcellulose) (HPC) 105 % of control | dose: 72.0 mg/kg/injection, schedule: Q01DX005 (ip), vehicle: Klucel (hydroxypropylcellulose) (HPC) 106 % of control

Nc1ccc([N+](=O)[O-])cc1
inactive: dose: 12.5 mg/kg/injection, schedule: Q01DX009 (ip), vehicle: distilled water + Tween-80 102 % of control | dose: 25.0 mg/kg/injection, schedule: Q01DX009 (ip), vehicle: distilled water + Tween-80 100 % of control | dose: 50.0 mg/kg/injection, schedule: Q01DX009 (ip), vehicle: distilled water + Tween-80 103 % of control | dose: 100.0 mg/kg/injection, schedule: Q01DX009 (ip), vehicle: distilled water + Tween-80 103 % of control | dose: 200.0 mg/kg/injection, schedule: Q01DX009 (ip), vehicle: distilled water + Tween-80 102 % of control

NC(=Nc1ccccc1)NNC=O
inactive: dose: 50.0 mg/kg/injection, schedule: Q01DX005 (ip), vehicle: saline 102 % of control | dose: 100.0 mg/kg/injection, schedule: Q01DX005 (ip), vehicle: saline 104 % of control | dose: 200.0 mg/kg/injection, schedule: Q01DX005 (ip), vehicle: saline 100 % of control

C#CCOC(=O)c1ccccc1
inactive: dose: 12.5 mg/kg/injection, schedule: Q01DX005 (ip), vehicle: saline with Tween-80 104 % of control | dose: 25.0 mg/kg/injection, schedule: Q01DX005 (ip), vehicle: saline with Tween-80 89 % of control | [4] 104 % of control and 95 % of control
